Measurements as given in patent publication US11951089B2, “Pharmaceutical composition for preventing or treating wound or scar, comprising benzbromarone” (INNOVO THERAPEUTICS INC., priority 2020, dated 2024).
pIC50: −log10 of the molar value.

Experiments:
[1] = system: KEL FIB cells isolated from keloid patients; experiment: Sirius red assay, TGF-β1-induced fibrosis in dermal fibroblast KEL FIB cells; format: cell-based
Procedure: (§1) Hepatic stellate LX-2 (Elabscience CH), lung epithelial A549 (ATCC US), liver stellate T6 (Elabscience, CH), or skin KEL FIB (ATCC, US) cells were cultured in 24-well tissue culture plates for 18 hours, followed by TGF-beta 10 ng/ml treatment, and then incubated with test compounds for 24 hours. Cells were washed with PBS, fixed with Bouin's solution, and washed twice with distilled water. The fixed cells were stained with Sirius red for 2 hours to observe cellular morphological changes, and then washed with 0.01 N HCl solution. Collagen-bound Sirius red was extracted with 0.1 N NaOH solution, which was then quantified at a wavelength of 570 nm. The inhibitory efficacy of each compound on collagen production was shown as a percentage.
KEL FIB cells (ATCC, USA) isolated from keloid patients were treated with 10 ng/ml TGF-β1 to induce fibrosis, and the test compound was treated simultaneously. The extent of fibrosis inhibition was observed by fixing the cells and staining them with Sirius Red, a collagen-specific stain, to observe morphological changes (FIG. 8A, 8B), and quantified by extracting Sirius Red with 0.1 N NaOH solution (FIG. 9).

[2] = system: Hepatic stellate cell LX-2; experiment: Sirius red assay, TGF-β1-induced fibrosis in hepatic stellate cell LX-2; format: cell-based; details: LX-2, 10 ng/ml TGF-β1 co-treatment; compared to the TGF-β1 treatment group; BBR 30 μM, 10 μM (FIG. 3)
Procedure: as §1
Hepatic stellate cell LX-2 was treated with 10 ng/ml TGF-β1 (Gibco, US) to induce fibrosis, and the benzbromarone (BBR) treatment group was treated with TGF-β1 and benzbromarone (BBR) simultaneously. The extent of fibrosis inhibition was observed by fixing the cells and staining them with Sirius Red, a collagen-specific stain, to observe morphological changes (FIG. 2A, 2B), and quantified by extracting Sirius Red with 0.1 N NaOH solution (FIG. 3).

Hepatic stellate cell T6 = experiment: Sirius red assay, TGF-β1-induced fibrosis in hepatic stellate cell T6; format: cell-based; details: T6, 10 ng/ml TGF-β1 co-treatment, 30 μM; compared to the TGF-β1 treatment group
Procedure: as §1
(§2) Hepatic stellate cell T6 was treated with 10 ng/ml TGF-β1 to induce fibrosis, and the test compound was treated simultaneously. The extent of fibrosis inhibition was observed by fixing the cells and staining them with Sirius Red, a collagen-specific stain, to observe morphological changes (FIG. 4A, 4B), and quantified by extracting Sirius Red with 0.1 N NaOH solution (FIG. 5).

[3] = system: carbon tetrachloride-induced liver fibrosis; experiment: Carbon tetrachloride-induced liver fibrosis model in mice; format: in vivo; details: CCl4 4 weeks, oral, twice a day (30 mg/kg BID)
Procedure: CCl4 was administered intraperitoneally at 50 uL (1:1 corn oil) per mouse three times a week for 4 weeks, and the test compound was suspended in 0.5% methylcellulose and administered orally at a dose of 5 ml/kg daily. As a positive control, obeticholic acid (Medkoo, US) was administered at a dose of 30 mg/kg. Body weight was measured once a week during the study period. 28 days after CCl4 administration, […] were inhalationally anesthetized with ether, and once anesthesia was confirmed, they were laparotomized and blood was drawn using a syringe from the posterior vena cava, and then the abdominal aorta and posterior vena cava were cut to exsanguinate/death. Blood was separated into serum and blood biochemical tests were performed. The liver was removed and weighed, the right lobe was fixed in 10% neutral buffered formalin solution, and the left lobe was divided in half and quick-frozen in liquid nitrogen. The quick-frozen samples were stored in an ultra-low temperature freezer set below −70° C. and used for 4-Hydroxyproline assay. The fixed tissues were subjected to the usual tissue processing procedures such as cutting, dehydration, paraffin embedding, and sectioning to prepare specimens for histopathological examination. Hematoxylin & Eosin (H&E) and Picrosirius red staining were performed, and histopathological changes were observed using optical microscope (Olympus BX53, Japan), and the area of fibrosis was analyzed. To determine the extent of carbon tetrachloride-induced liver tissue damage and liver function, plasma alanine aminotransferase (ALT) and bilirubin levels were analyzed in the plasma collected from autopsy using a blood biochemistry analyzer (7180 Hitachi, Japan). […] As liver fibrosis progresses, collagen is deposited in liver tissue. The content of 4-hydroxyproline in collagen in a carbon tetrachloride-induced injured liver tissue was analyzed to determine the extent of fibrosis.

[4] = system: Lung epithelial cells A549; experiment: Sirius red assay, TGF-β1-induced fibrosis in lung epithelial cells A549; format: cell-based
Procedure: as §1
as §2, with “Lung epithelial cells A549 were” for “Hepatic stellate cell T6 was”, “staining” for “staining them”, “6A, 6B),” for “4A, 4B),”, “7).” for “5).”

HSP47 = molecular target: T1, HSP47 (Homo sapiens, UniProt P50454); experiment: Evaluation of HSP47 activity (inhibition of collagen fibril formation, OD 340 nm); format: biochemical; details: collagen fibril formation in PBS pH 7.4, 37° C.; HSP47 9.45 μg/ml; Prism
T1 construct: purchased GenScript US
T1 sequence (P50454 19-418, species assumed): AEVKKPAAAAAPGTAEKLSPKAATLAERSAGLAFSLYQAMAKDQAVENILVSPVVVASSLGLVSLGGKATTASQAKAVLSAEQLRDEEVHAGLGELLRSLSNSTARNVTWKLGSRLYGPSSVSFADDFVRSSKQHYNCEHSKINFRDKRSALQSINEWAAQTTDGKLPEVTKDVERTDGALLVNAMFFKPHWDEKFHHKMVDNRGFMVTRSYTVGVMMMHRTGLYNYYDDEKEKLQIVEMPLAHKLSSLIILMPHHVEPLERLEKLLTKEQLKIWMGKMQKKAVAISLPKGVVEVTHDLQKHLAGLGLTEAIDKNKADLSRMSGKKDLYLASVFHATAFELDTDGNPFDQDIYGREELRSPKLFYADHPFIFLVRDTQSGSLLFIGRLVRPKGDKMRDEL
Procedure: Fibrils were formed by adding 180 ul of phosphate-buffered saline (PBS, pH 7.4) solution to 20 ul of collagen dissolved in acidic solution (collagen solution, UK), which was measured at a wavelength of 340 nm. HSP47 (GenScript US) was added at a concentration of 9.45 μg/ml to evaluate HSP47 activity as the degree to which it inhibits fibril formation. Test compound was added with concentrations of 100 μM to 1 μM and the inhibitory activity of HSP47 was calculated as a percentage.
The OD measured when collagen was placed in PBS buffer (pH 7.4) to form fibrils at 37° C. was taken as 100%, and the OD measured when HSP47 and collagen were placed together to form fibrils was taken as 0%. The percentage of inhibition of HSP47 by the test compound at each concentration was measured. IC50 values were calculated using Prism software (Graphpad, USA).

[5] = system: burn-induced skin scarring; experiment: Inhibition of burn-induced skin scarring in minipigs; format: in vivo, Yucatan minipigs; details: 1% ointment once daily topical, day 45 of burn induction
Procedure: Yucatan minipigs that had been fasted for at least 8 hours were anesthetized using xylazine hydrochloride, midazolam, and propofol. After removing the hair on the trunk and back, the test area was disinfected with povidone iodine solution. Burns were induced by contacting the test area with a 400-gram stainless steel weight for 40 seconds. Burns were applied 2 cm from the spine and 4 cm apart between burn sites. The burn area should not exceed 3.5% of the total animal area. 15 days after burning, the scab was removed and the test compound was applied to the wounds once daily. At 45 days after burn induction, autopsy was performed, and the wounds were fixed in formalin solution and H&E staining was performed to measure the thickness of the dermal layer. The test compound was suspended in propylene glycol (Yakuri pure chemicals, Japan) and made into a homogeneous suspension using an ultrasonic cleaner, which was then diluted in lanolin (Merck, USA) and petroleum jelly (Merck, USA) under 60° C. water bath to prepare an ointment. Each component of the prepared ointment is 1% (w/w) of the test compound, 20% (w/w) of propylene glycol, 15% (w/w) of lanolin, and 64% (w/w) of vaseline. […] The reduction of scar size and wound in the BBR treatment group (BBR 1%) was clearly shown numerically. […] Also, the numerical measurement of the hypertrophy of the dermis layer was shown in FIG. 15B, and the hypertrophy of the dermis layer was the lowest in the BBR treatment group (BBR 1%).

[6] = 10 ng/ml TGF-β1, Sirius Red quantified

- pIC50 ([4]; Homo sapiens, A549, 10 ng/ml TGF-β1, Sirius Red OD 570 nm, read-out: IC50 of fibrosis inhibition): 5.37
- pIC50 (HSP47): 3.88
SMILES: CCc1oc2ccccc2c1C(=O)c1cc(Br)c(O)c(Br)c1 [benzbromarone, (3,5-dibromo-4-hydroxyphenyl)-(2-ethyl-1-benzofuran-3-yl)methanone]
- concentration at which the fibrosis inhibitory effect began to appear [1, 6]: 3 µM
- concentration from which fibrosis was significantly inhibited [1, 6]: ≥ 10 µM
- fibrosis by Sirius Red staining (morphology) ([1]; 10 ng/ml TGF-β1 co-treatment, 30 μM): fibrosis was reduced
- degree of fibrosis (Sirius Red, quantified) [2]: significantly reduced
- degree of fibrosis (Sirius Red, quantified) (Hepatic stellate cell T6): significantly reduced
- content of 4-hydroxyproline in liver tissue [3]: statistically significantly reduced
- plasma alanine aminotransferase (ALT) [3]: Statistically significant decreases
- plasma bilirubin [3]: Statistically significant decreases
- fibrosis area of liver tissue ([3]; versus obeticholic acid 30 mg/kg): comparable result with fibrosis inhibition as the obeticholic acid (OCA) treatment group
- fibrosis by Sirius Red staining (morphology) ([4]; A549, 10 ng/ml TGF-β1 co-treatment, 30 μM): fibrosis was reduced
- scar extent compared to positive control triamcinolone 0.1% [5]: reduced
- scar size and wound extent compared to control group (Vehicle) [5]: significantly reduced
- hypertrophy of the dermis layer (scar tissue thickness, H&E) ([5]; versus other groups): lowest
